Earlier results as cited in US20060251720A1, “Localized controlled absorption of statins in the gastrointestinal tract for achieving high blood levels of statins” (priority 2004, published 2006).

Tests used:
HMG-CoA reductase = biological target: T1, HMG-CoA reductase (Homo sapiens, UniProt P04035); conditions: relative to the beta-hydroxy acid form taken as the drug
T1 sequence (P04035 1-888): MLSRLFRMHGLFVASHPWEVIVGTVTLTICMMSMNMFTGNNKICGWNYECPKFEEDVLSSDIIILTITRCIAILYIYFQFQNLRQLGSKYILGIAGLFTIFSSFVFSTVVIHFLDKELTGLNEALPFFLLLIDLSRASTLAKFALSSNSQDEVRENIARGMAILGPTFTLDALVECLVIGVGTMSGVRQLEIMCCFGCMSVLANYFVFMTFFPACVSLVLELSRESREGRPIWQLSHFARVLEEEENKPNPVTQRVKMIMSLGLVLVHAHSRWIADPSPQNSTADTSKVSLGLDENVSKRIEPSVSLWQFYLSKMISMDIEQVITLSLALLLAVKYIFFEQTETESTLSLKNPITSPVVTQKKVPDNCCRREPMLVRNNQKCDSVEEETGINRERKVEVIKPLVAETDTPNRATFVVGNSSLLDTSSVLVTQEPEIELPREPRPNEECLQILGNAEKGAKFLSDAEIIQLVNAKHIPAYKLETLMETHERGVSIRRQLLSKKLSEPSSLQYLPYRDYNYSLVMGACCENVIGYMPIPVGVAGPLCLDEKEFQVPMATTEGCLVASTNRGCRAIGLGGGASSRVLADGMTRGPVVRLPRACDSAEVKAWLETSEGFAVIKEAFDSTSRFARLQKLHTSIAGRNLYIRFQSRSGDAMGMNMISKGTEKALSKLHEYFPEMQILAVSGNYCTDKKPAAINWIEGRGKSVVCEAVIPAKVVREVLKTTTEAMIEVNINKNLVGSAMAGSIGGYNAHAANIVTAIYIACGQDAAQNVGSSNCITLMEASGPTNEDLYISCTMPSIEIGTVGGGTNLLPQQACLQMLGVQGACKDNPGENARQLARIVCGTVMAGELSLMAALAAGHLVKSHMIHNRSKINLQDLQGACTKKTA

[1] = test system: plasma proteins, primarily albumin

HMG-CoA reductase activity retained (HMG-CoA reductase) | bound to plasma proteins, primarily to albumin [1] | Compound
approximately 40% |  | CCC(C)(C)C(=O)O[C@H]1C[C@@H](CO)C=C2C=C[C@H](C)[C@H](CC[C@@H]3C[C@@H](O)CC(=O)O3)[C@H]21 [6-beta-hydroxymethyl simvastatin]
~50% |  | CCC(C)(C)C(=O)OC1CC(C)(O)C=C2C=CC(C)C(CCC3CC(O)CC(=O)O3)C21 (stereo not drawn) [6-beta-hydroxy simvastatin]
 | more than 95% | CCC(C)(C)C(=O)O[C@H]1C[C@@H](C)C=C2C=C[C@H](C)[C@H](CC[C@@H]3C[C@@H](O)CC(=O)O3)[C@H]21 [simvastatin]
